In patent US5912183A, “Peptide inhibitors of mitogenesis and motogenesis” (Pharmacia & Upjohn S.p.A., priority 1993, dated 1999):
Residues, ends and D or L forms follow the SMILES beside them.

Legend:
GST-SH2 domain of Shc = biological target: T1, GST-SH2 domain of Shc (Homo sapiens, UniProt P29353); assay: BIAcore binding of Shc SH2 domain to immobilised phosphopeptides; conditions: biosensor; avidin-immobilized biotinylated phosphopeptide
T1 construct: using the Shc SH2 domain, expressed in bacteria as a GST-fusion protein; made in house; host or cells: bacteria
T1 sequence (P29353 488-579 limits assumed): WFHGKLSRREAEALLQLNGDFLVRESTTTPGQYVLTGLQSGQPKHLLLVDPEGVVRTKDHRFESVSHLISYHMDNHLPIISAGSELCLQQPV
Method: FIG. 13. […] The same concentration of Shc-SH2 was injected over two biosensor surfaces on which two phosphopeptides had been immobilised. Y1356P is derived from the sequence VNATY^1356 VNVK (SEQ. ID NO: 28) of the receptor tail; Y317P is derived from the sequence DDPSY^317 VNVQ (SEQ. ID NO: 27). Note that both peptides contain the same core (YVNV) but (SEQ. ID NO: 3) different upstream sequences. The initial rapid increase in the response is due to the "bulk effect" of the injected solution.
In vitro binding studies using GST-fusion protein. The region of the Grb2 cDNA corresponding to its SH2 domain (from nucleotide position 256 to nucleotide position 551) was isolated using polymerase chain reaction (PCR) and cloned into the BamHI-EcoRI sites of the bacterial expression plasmid pGEX-2T (GST-Grb2). Cultures of bacteria expressing GST, GST-Grb2 or GST-Shc (Segatto et al., Oncogene 2105-2112 (1993)) were grown for 3-4 hours at 37° C. in LB medium containing 1 mM IPTG. Bacteria were centrifuged, resuspended in 1/100 volume of ice-cold PY buffer, without Triton™ and lysed by sonication. After adding Triton X-100 to 1%, lysates were clarified by centrifugation. Recombinant proteins were purified onto glutathione Sepharose™ (Pharmacia) and used as such for binding assays. For each reaction, about 5 μg of GST, GST-Grb2 or GST-Shc bound to glutathione Seharose was incubated for 2 hrs. at 4° C. with […] of appropriate cell lysate made in PY buffer. Protein complexes were washed 5 times in ice cold PY buffer, eluted and denatured by heating at 95° C. for 3 min in Laemmli buffer, resolved on SDS-PAGE and analyzed by immunoblot.
The basic principles of operation as well as the methodology for obtaining kinetic measurements of SH2 domain interactions using the BIAcore instrument (Pharmacia) have been previously described in detail (Panayotou et al., Mol. Cell. Biol. 13: 3567-3576 (1993), Ponzetto et al., Mol. Cell. Biol. 13: 4600-4608 (1993)). Purified GST-SH2 domains or intact proteins were desalted in BIAcore running buffer (20 mM Hepes, pH 7.4, 150 mM NaCl, 3.4 mM EDTA, 0.005% Tween 20 and 4 mM DTT) and injected over avidin-immobilized, biotinylated phosphopeptides. The amount of phosphopeptides immobilized was normalized by measuring the binding of anti-phosphotyrosine antibodies. Association was measured over a range of protein concentrations and dissociation of bound material was allowed to occur either in buffer flow or upon injection of 20 μM competing, non-biotinylated phosphopetide. Peptide and protein concentrations were calculated by amino acid analysis on an Applied Biosystem amino acid analyzer.
The direct interaction between the SH2 domain of Shc and phosphotyrosine Y^1349 or Y^1356 was confirmed by real-time Biosensor analysis (Panayotou et al., ibid; Felder et al., Mol. Cell. Biol. 13: 1449-1455 (1993)).
The Shc sequence Y^317 VNV (SEQ. ID NO: 3) is identical to one of the two Shc binding sites present in the SF/HGF receptor (FIG. 8). […] The biosensor was used to compare binding of the Shc SH2 domain to the phosphopeptide DDPSY^317 VNVQ (SEQ. ID NO: 27), present on the Shc molecule, and to the phosphopeptide VNATY^1356 VNVK (SEQ. ID NO: 28), present on the SF/HGF receptor. […] Thus Shc-Shc association is not favoured in vivo, and the Shc phosphotyrosine residue Y^317 is available to bind other molecules, rather than to mediate the formation of concatamers.

Grb2 SH2 domain = biological target: T2, Grb2 SH2 domain (Homo sapiens, UniProt P62993); assay: BIAcore real-time binding of Grb2 GST-SH2 fusion protein to immobilized phosphopeptide
T2 construct: corresponding to its SH2 domain (from nucleotide position 256 to nucleotide position 551); made in house; host or cells: bacteria (pGEX-2T)
T2 sequence (P62993 60-152 limits assumed): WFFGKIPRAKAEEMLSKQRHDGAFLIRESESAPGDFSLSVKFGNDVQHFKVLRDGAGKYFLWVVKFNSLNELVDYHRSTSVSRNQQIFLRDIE
Method: FIG. 15. The Grb2 SH2 domain binds to the Y^317 docking site of Shc. Panel A: sensorgrams obtained by injection of a range of Gst-SH2.Grb2 concentrations over the immobilised phosphopeptide derived from the Shc sequence DDPSY^317 VNVQ (SEQ. ID NO: 27). Panel B: effect of competing peptide on the dissociation rate. At the end of the Grb2 injection, buffer or […] of non-biotinylated phosphopeptide were injected. Panel C: analysis of the data shown in panel A. The figure on the left is a plot of the rate of binding versus the relative response for the six different sensorgrams. In the figure on the right, the slopes of each line are plotted against the concentration: the new slope gives the value of the association rate constant.
In vitro binding studies using GST-fusion protein. The region of the Grb2 cDNA corresponding to its SH2 domain (from nucleotide position 256 to nucleotide position 551) was isolated using polymerase chain reaction (PCR) and cloned into the BamHI-EcoRI sites of the bacterial expression plasmid pGEX-2T (GST-Grb2). Cultures of bacteria expressing GST, GST-Grb2 or GST-Shc (Segatto et al., Oncogene 2105-2112 (1993)) were grown for 3-4 hours at 37° C. in LB medium containing 1 mM IPTG. […] Protein complexes were washed 5 times in ice cold PY buffer, eluted and denatured by heating at 95° C. for 3 min in Laemmli buffer, resolved on SDS-PAGE and analyzed by immunoblot.
The basic principles of operation as well as the methodology for obtaining kinetic measurements of SH2 domain interactions using the BIAcore instrument (Pharmacia) have been previously described in detail (Panayotou et al., Mol. Cell. Biol. 13: 3567-3576 (1993), Ponzetto et al., Mol. Cell. Biol. 13: 4600-4608 (1993)). […] Association was measured over a range of protein concentrations and dissociation of bound material was allowed to occur either in buffer flow or upon injection of 20 μM competing, non-biotinylated phosphopetide. Peptide and protein concentrations were calculated by amino acid analysis on an Applied Biosystem amino acid analyzer. […]

[1] = test system: binding of PI 3-kinase holoenzyme to HGF/SF receptor; assay: Competition of phosphopeptides with PI 3-kinase holoenzyme (A549 cytosolic extracts) for association with recombinant HGF/SF receptor (PI 3-kinase activity assay); parameters: species or system human; conditions: phosphopeptide 10 μM; A549 cytosolic extracts; FIG. 3
Method: FIG. 3. Inhibition of binding of PI 3-kinase holoenzyme to HGF/SF receptor by tyrosine-phosphorylated peptides. The phosphopeptides which efficiently out-competed p85 (FIG. 1) were assayed for the ability to interfere with binding of the PI 3-kinase holoenzyme to the HGF/SF receptor. Cytosolic extracts from three days-starved A549 cells were pre-incubated with each of the phosphopeptides (10 μM) prior to incubation with the immobilized recombinant HGF/SF receptor. The presence of receptor-associated PI 3-kinase in the immunocomplexes was determined by PI 3-kinase activity assay, as described in Materials and Methods of Example 4. The position of the phosphatidylinositol-3-phosphate (PIP) product of the PI 3-kinase reaction is indicated.
In vitro association experiments. Sf9 cells expressing the recombinant HGF/SF receptor (approximately 4×10^6 cells/point) were lysed 36 hours after infection in buffer A (10 mM Tris-HCl buffer pH 7.5, 10% glycerol, 1% Triton X-100, 150 mM NaCl, 5 mM EDTA), supplemented with 0.2 mM phenyl-methylsulfonyl fluoride, 1 μg/ml leupeptin, 0.1 TIU/ml aprotinin and 1 μg/ml pepstatin. […]
The presence of the p85 subunit of the PI 3-kinase in the receptor immunoprecipitate was determined by: i) labelling of the receptor and associated proteins with [γ-^32 P]ATP by in vitro kinase assay; ii) Western immunoblotting; iii) PI 3-kinase activity assay. […]

[2] = biological target: T3, binding of p85 to HGF/SF receptor (Bos taurus, UniProt P23727); assay: Competition of phosphopeptides with p85 for association with immobilized recombinant HGF/SF receptor (in vitro kinase assay readout); parameters: species or system human
T3 construct: made in house; host or cells: Sf9 insect cells (baculovirus), for both p85 and the receptor
T3 sequence (P23727 whole entry): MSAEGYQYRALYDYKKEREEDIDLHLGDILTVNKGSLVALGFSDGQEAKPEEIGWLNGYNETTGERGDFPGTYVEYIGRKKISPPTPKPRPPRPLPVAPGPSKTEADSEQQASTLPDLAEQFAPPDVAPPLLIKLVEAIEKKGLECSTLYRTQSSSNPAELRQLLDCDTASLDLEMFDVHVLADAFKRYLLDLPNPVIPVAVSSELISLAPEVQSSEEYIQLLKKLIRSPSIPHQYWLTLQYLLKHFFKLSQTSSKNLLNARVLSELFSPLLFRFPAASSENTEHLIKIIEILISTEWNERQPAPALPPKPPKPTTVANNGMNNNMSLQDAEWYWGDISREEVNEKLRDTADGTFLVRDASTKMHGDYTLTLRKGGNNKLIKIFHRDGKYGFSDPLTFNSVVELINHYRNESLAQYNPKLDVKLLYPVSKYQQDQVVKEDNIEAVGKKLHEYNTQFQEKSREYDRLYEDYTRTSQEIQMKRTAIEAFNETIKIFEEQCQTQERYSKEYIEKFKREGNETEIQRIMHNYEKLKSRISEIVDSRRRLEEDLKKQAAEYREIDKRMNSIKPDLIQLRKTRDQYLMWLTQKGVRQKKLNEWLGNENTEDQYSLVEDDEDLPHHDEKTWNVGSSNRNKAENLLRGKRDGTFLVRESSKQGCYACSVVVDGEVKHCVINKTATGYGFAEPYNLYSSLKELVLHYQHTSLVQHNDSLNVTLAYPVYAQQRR
Method: FIG. 1. Inhibition of binding of p85 to HGF/SF receptor by tyrosine-phosphorylated peptides. Recombinant HGF/SF receptor was purified by immunoprecipitation from baculovirus-infected Sf9 cells using a rabbit polyclonal antiserum and phosphorylated with cold ATP. Lysates of Sf9 cells expressing p85 were pre-incubated with each of the phosphopeptides (10 μM). The lysates were then allowed to associate with immobilized recombinant HGF/SF receptors. Following association the complex was washed and receptor-bound p85 was detected by an in vitro kinase assay, as described in Materials and Methods of Example 4. The phosphopeptides are identified by the number of the amino terminal tyrosine.
FIG. 2. Inhibition of binding of p85 to HGF/SF receptor with different concentrations of tyrosine-phosphorylated peptides. The phosphopeptides which efficiently out-competed p85 binding to the HGF/SF receptor (FIG. 1) were used at increasing concentrations (10 nM, 100 nM, 1 μM from left to right) to define their relative affinities for p85. Conditions of the experiment were as in FIG. 1. Phosphopeptide 1365 was used as a negative control for p85 interaction.
In vitro association experiments. Sf9 cells expressing the recombinant HGF/SF receptor (approximately 4×10^6 cells/point) were lysed 36 hours after infection in buffer A (10 mM Tris-HCl buffer pH 7.5, 10% glycerol, 1% Triton X-100, 150 mM NaCl, 5 mM EDTA), supplemented with 0.2 mM phenyl-methylsulfonyl fluoride, 1 μg/ml leupeptin, 0.1 TIU/ml aprotinin and 1 μg/ml pepstatin. Lysates were clarified at 15,000×g at 4° C. for 15 minutes and the supernatants immunoprecipitated after 2 hours incubation with anti-Met antibodies coupled to Protein A-Sepharose. Immunocomplexes were washed three times with buffer A, once with buffer B (10 mM Tris-HCl pH 7.4, 100 mM NaCl, 1 mM EDTA) and once with buffer C (25 mM 4-(2-hydroxyethyl)-1-piperazine-ethanesulfonic acid (HEPES) buffer pH 7.2, 100 mM NaCl, 5 mM MgCl2). Samples were pre-phosphorylated by incubation for 15 minutes at 25° C. in buffer C with 10 μM unlabelled ATP and then washed three times with cold buffer A supplemented with 1 mM sodium ortho-vanadate. Association between the immobilized receptor and the baculovirus-expressed p85 was carried out as previously described (Bardelli, A., et al., Oncogene 7: 1973-1978 (1992)). For the association experiments with the PI 3-kinase holoenzyme three days serum-starved A549 cells (approx. 2×10^6 cells/point) were used as a source of PI 3-kinase. A549 cells were Dounce-homogenized in MOPS buffer (20 mM 3-(N-morpholino)propanesulfonic acid) (pH 7.5), 1 mM MgCl2, 0.1 mM EDTA, 200 mM sucrose, 1 mM sodium ortho-vanadate), supplemented with 0.2 mM phenylmethylsulfonyl fluoride, 1 μg/ml leupeptin, 0.1 TIU/ml aprotinin and 1 μg/ml pepstatin. Homogenates were centrifuged at 100,000×g for 20 minutes at 4° C. When checking for the ability of phosphopeptides to block the association with the receptor, cell lysates were pre-incubated with the phosphopeptides for 1 hour at 4° C. prior to incubation with the immobilized recombinant HGF/SF receptor. Following association, immunocomplexes were washed three times with buffer A, twice with buffer D (0.5M LiCl, 100 mM Tris-HCl pH 7.6), and twice with buffer B.
The presence of the p85 subunit of the PI 3-kinase in the receptor immunoprecipitate was determined by: i) labelling of the receptor and associated proteins with [γ-^32 P]ATP by in vitro kinase assay; ii) Western immunoblotting; iii) PI 3-kinase activity assay.
In vitro kinase assay. Receptor-associated proteins were labelled in 20 μl of buffer C, in the presence of 10 μCi [γ-^32 P]ATP (specific activity 7,000 Ci/Mm; Amersham) at 25° C. for 15 minutes. The reaction was stopped by adding 1 ml of ice-cold Buffer A without protease inhibitors. Samples were washed three times with cold buffer A. The labelled immunocomplexes were eluted from Protein A-Sepharose in boiling Laemmli buffer. […]

Structure (SMILES) | Binding of Shc SH2 domain to immobilised phosphopeptide (GST-SH2 domain of Shc) | kon (Grb2 SH2 domain; Grb2 GST-SH2 over immobilized phosphopeptide, read-out: K^ass (association rate constant)) [M⁻¹ s⁻¹] | Kd (Grb2 SH2 domain; from Kdiss and K^ass, read-out: Overall affinity) [nM] | Kdiss (dissociation rate) (Grb2 SH2 domain; measured in buffer and in the presence of competing phosphopeptide to prevent re-binding) [S^-1] | Interference with binding of PI 3-kinase holoenzyme to HGF/SF receptor [1] | Inhibition of binding of p85 to HGF/SF receptor ([2]; phosphopeptide 10 μM, p85 from Sf9 lysates, FIG. 1) | Efficiency at outcompeting p85 (relative affinity for p85) ([2]; phosphopeptides at 10 nM, 100 nM, 1 μM, FIG. 2, rank order SEQ. ID NO: 19, then 22, 20, 18)
CC(C)[C@H](NC(=O)[C@H](CC(N)=O)NC(=O)[C@@H](NC(=O)[C@H](Cc1ccc(OP(=O)(O)O)cc1)NC(=O)[C@H](CO)NC(=O)[C@@H]1CCCN1C(=O)[C@H](CC(=O)O)NC(=O)[C@@H](N)CC(=O)O)C(C)C)C(=O)N[C@@H](CCC(N)=O)C(=O)O [DDPSY^317* VNVQ, H-Asp-Asp-Pro-Ser-Tyr*-Val-Asn-Val-Gln-OH] (HELM PEPTIDE1{D.D.P.S.[O=C([C@H](Cc1ccc(OP(=O)(O)O)cc1)N[*:1])[*:2]].V.N.V.Q}$$$$V2.0) | much more weakly | 260000 | 153 | 0.04 | – | – | –
CC(C)[C@H](NC(=O)[C@H](CC(N)=O)NC(=O)[C@@H](NC(=O)[C@H](Cc1ccc(OP(=O)(O)O)cc1)NC(=O)[C@@H](NC(=O)[C@H](C)NC(=O)[C@H](CC(N)=O)NC(=O)[C@@H](NC(=O)[C@H](Cc1c[nH]cn1)NC(=O)[C@@H](NC(=O)[C@@H](N)Cc1ccc(OP(=O)(O)O)cc1)C(C)C)C(C)C)[C@@H](C)O)C(C)C)C(=O)N[C@@H](CCCCN)C(=O)O [H-Tyr*-Val-His-Val-Asn-Ala-Thr-Tyr*-Val-Asn-Val-Lys-OH] (HELM PEPTIDE1{[N[C@@H](Cc1ccc(OP(=O)(O)O)cc1)C(=O)[*:2]].V.H.V.N.A.T.[O=C([C@H](Cc1ccc(OP(=O)(O)O)cc1)N[*:1])[*:2]].V.N.V.K}$$$$V2.0) | – | – | – | – | more efficient at displacing the PI 3-kinase holoenzyme from the HGF/SF receptor than those including just one of these residues | completely prevented p85 binding | comparable to H-Tyr*-Val-Asn-Val-Lys-Cys-Val-Ala-OH
